Experimental data published in article PMC6121439 (International Journal of Molecular Sciences, 2018).
No end group written: not given here.

Columns and labels:
[1] = system: E. coli genes DnaK, ompC, sbmA; assay: Bacterial gene expression by RT-qPCR; format: cell-based, Escherichia coli; details: 0.1 µM, 30 min, RT-qPCR normalized to GAPDH
Experimental: (§1) The bacterial gene expression of proteins implicated in stress pathways and bacterial resistance response was evaluated following incubation with sub-lethal concentrations of the peptides. The following genes were selected: DnaK gene encoding for a chaperone, ompC gene encoding for a protein porin; sbmA encoding for an integral inner membrane protein that participates in an ABC transporter, parE encoding for a DNA topoisomerase IV and MprF for a lysyl transferase that ensures the synthesis of lysylphosphatidylglycerol (LPG). Total bacterial RNA was extracted using the mirVAna™ Isolation Kit, which integrates an organic extraction and solid-phase extraction to obtain high yields of ultra-pure, high quality RNA. […] Ampicillin was used at the same concentration as a positive control. After incubation cells were sedimented and resuspended in lysis buffer. RNA isolation was done according to manufacturer’s instructions. The amount of RNA extracted was quantified using Quantus™ Fluorometer (Promega). […] Complementary DNA (cDNA) synthesis is the first step of the two-step quantitative reverse transcriptase Polymerase Chain Reaction (RT-qPCR). cDNA was generated by the enzyme reverse transcriptase (RT). An aliquot of 1000 ng of total RNA was used to synthesize cDNA according to the manufacture instruction of iScript™ cDNA Synthesis Kit.
Gene expression of Escherichia coli and Staphylococcus aureus after peptide incubation was determined by Real Time Quantitative Polymerase Chain Reaction (RT-qPCR). The amount of amplified product was measured at each PCR cycle by using fluorescent probes and reading the signal emitted from the dyes while performing the thermal cycling. 1 μL of cDNA (5 ng) was mixed with 2 μL of RNase free water, 5 μL of iTaq Universal Master SYBR green Supermix, 1 μL of each primer of interest (500 nM), for a total volume of 10 μL per reaction. The genes studied in E. coli cells correspond to DnaK, ompC, SbmA and 16S MprF, parE for S. aureus. GAPDH was used as housekeeping for date normalization in the qPCR assays. Gene expression level was analyzed using a comparative quantification method ΔCq. This method assesses the fold change compared to a calibrator sample (control or group of reference). Counts for genes of interest were adjusted in relation to a reference (housekeeper) gene GAPDH. Reactions were subjected to 60 °C for 1 min and 95 °C for 10 min, followed by 40 cycles of 95 °C for 15 s and 60 °C for 1 min. Each sample was analyzed in triplicate. Data analysis was performed using Bio-Rad CFX Manager. The figure of gene level expression was designed by R project.

E. coli (BL21) [2] = assay: Bacterial viability by ATP quantification (BacTiter-Glo); format: cell-based, Escherichia coli; details: ATP luminescence, 4 h at 37 °C, Hepes 20 mM pH 7.5, 0.1 M NaCl, peptide 100 to 0.1 µM, mean ± SEM, three replicates of two experiments
Experimental: (§2) Minimum Bactericidal Concentrations (MBC100) were determined by CFU counting following plating of bacterial culture onto Petri dishes after four hours of incubation with serial peptide concentrations. The ED50 was calculated by ATP quantification using the BacTiter-Glo™ Microbial Cell Viability kit (Promega, Madison, WI, USA). Cell cytotoxicity was quantified using resazurin reduction in human monocytes. Fifty percent cytotoxic concentration (CC50) was calculated as described in Materials and methods. […] Values are given as mean ± SEM.
(§3) Antibacterial activity was assayed by following the cell viability of E. coli and S. aureus, using the BacTiter-Glo™ Microbial Cell Viability kit (Promega), which measures the number of viable bacterial cells, by ATP quantification. ATP, as an indicator of metabolically active cells, is indirectly measured by a coupled luminescence detection assay. The luminescent signal is proportional to the amount of ATP required for the conversion of luciferin into oxyluciferin in the presence of luciferase.

E. coli cells [3] = assay: Minimum agglutination concentration on bacteria; format: cell-based, Escherichia coli; details: Tris-HCl, 0.1 M NaCl, pH 7.5, 1 h at 37 °C, visual inspection, 50× stereoscope
Experimental: For determination of minimum agglutination concentration (MAC) values, bacterial cells were grown at 37 °C to mid-exponential phase (OD600 = 0.6), centrifuged at 5000× g for 2 min, and resuspended in Tris-HCl buffer, 0.1 M NaCl, pH 7.5 to give an absorbance of 0.2 at 600 nm. A 100 µL aliquot of the bacterial suspension was incubated with the peptide at various (0.01–10 µM) concentrations at 37 °C for 1 h. Agglutination behavior was observed by visual inspection using a 50× stereoscope microscope and the MAC value was expressed as described.

S. aureus (ATCC 502A) [4] = assay: Bacterial viability by ATP quantification (BacTiter-Glo); format: cell-based, Staphylococcus aureus; details: ATP luminescence, 4 h at 37 °C, mean ± SEM, three replicates of two experiments
Experimental: as §2, §3

[5] = system: S. aureus genes 16S, parE, MprF; assay: Bacterial gene expression by RT-qPCR; format: cell-based, Staphylococcus aureus; details: 0.1 µM, 30 min, RT-qPCR normalized to GAPDH
Experimental: as §1
Gene expression of Escherichia coli and Staphylococcus aureus after peptide incubation was determined by Real Time Quantitative Polymerase Chain Reaction (RT-qPCR). The amount of amplified product was measured at each PCR cycle by using fluorescent probes and reading the signal emitted from the dyes while performing the thermal cycling. 1 μL of cDNA (5 ng) was mixed with 2 μL of RNase free water, 5 μL of iTaq Universal Master SYBR green Supermix, 1 μL of each primer of interest (500 nM), for a total volume of 10 μL per reaction. The genes studied in E. coli cells correspond to DnaK, ompC, SbmA and 16S MprF, parE for S. aureus. […] Gene expression level was analyzed using a comparative quantification method ΔCq. […] Each sample was analyzed in triplicate. […]

S. aureus (ATCC 502A) [6] = assay: Minimum bactericidal concentration (CFU counting); format: cell-based, Staphylococcus aureus; details: ~5 × 10^5 CFU/mL, peptide 20 to 0.1 µM in Hepes 20 mM, 0.1 M NaCl, pH 7.5, 4 h at 37 °C, then plating, two independent experiments in triplicate
Experimental: as §2
(§4) The MBC of each peptide was determined as described previously. Bacteria were incubated at 37 °C overnight in Luria-Bertani broth (LB) and diluted to approximately 5 × 10^5 CFU/mL. The strains used in this study corresponded to Escherichia coli BL21 from Novagen (Madison, WI, USA), Staphylococcus aureus (ATCC502A) obtained from the Colección Española de Cultivos tipo (CECT), Universidad de Valencia, Spain, Pseudomonas aeruginosa (ATCC® 15692, PAO1), from the American Type Culture Collection (ATCC; Rockville, MD, USA) and P. aeruginosa PA14 were used as reference strains. Three clinical isolates of S. aureus, MRSA (34026, 36055 and 39413) and two clinical isolates of P. aeruginosa (M8C1 and M18C1) were obtained by the kind donation of the Centro de Investigaciones Microbiológicas, CIMIC (Universidad de los Andes, Bogotá, Colombia). […]

[7] = system: P. aeruginosa (M8C1) clinical isolate; assay: Bacterial viability by ATP quantification (BacTiter-Glo); format: cell-based, Pseudomonas aeruginosa; details: ATP luminescence, 4 h at 37 °C, peptide up to 100 µM
Experimental: as §2
(§5) The MBC of each peptide was determined as described previously. Bacteria were incubated at 37 °C overnight in Luria-Bertani broth (LB) and diluted to approximately 5 × 10^5 CFU/mL. […]
(§6) Antibacterial activity was assayed by following the cell viability of E. coli and S. aureus, using the BacTiter-Glo™ Microbial Cell Viability kit (Promega), which measures the number of viable bacterial cells, by ATP quantification. ATP, as an indicator of metabolically active cells, is indirectly measured by a coupled luminescence detection assay. […]

[8] = system: P. aeruginosa (M18C1) clinical isolate; assay: as above; format: cell-based, Pseudomonas aeruginosa; details: ATP luminescence, 4 h at 37 °C, peptide up to 100 µM
Experimental: as §2, §5, §6

[9] = system: S.aureus (36055) clinical isolate, MRSA; assay: as above; format: cell-based, Staphylococcus aureus; details: ATP luminescence, 4 h at 37 °C, peptide up to 100 µM
Experimental: as §2, §5, §6

E. coli (BL21) [10] = assay: Minimum bactericidal concentration (CFU counting); format: cell-based, Escherichia coli; details: ~5 × 10^5 CFU/mL, peptide 20 to 0.1 µM in Hepes 20 mM, 0.1 M NaCl, pH 7.5, 4 h at 37 °C, then plating, two independent experiments in triplicate
Experimental: as §2, §4

[11] = Liposome leakage, ANTS/DPX; details: DOPC/DOPG (3:2) LUVs 30 µM, 37 °C, 20 mM NaCl, 10 mM Tris/HCl pH 7.5
[12] = system: S.aureus (39413) clinical isolate, MRSA; assay: Bacterial viability by ATP quantification (BacTiter-Glo); format: cell-based, Staphylococcus aureus; details: ATP luminescence, 4 h at 37 °C, mean ± SEM, three replicates of two experiments
Experimental: as §2, §5, §6

[13] = system: S.aureus (34026) clinical isolate, MRSA; assay: as above; format: cell-based, Staphylococcus aureus; details: ATP luminescence, 4 h at 37 °C, mean ± SEM, three replicates of two experiments
Experimental: as §2, §5, §6

E. coli cells [14] = assay: FACS internalization of FITC-labeled peptides; format: cell-based, Escherichia coli; details: FITC-labeled peptide, sublethal concentration (0.5 µM), 10 min
Experimental: (§7) We performed FACS analysis in order to analyze the internalization of the FITC labeled peptides into E. coli and S. aureus cells. […] After corroborating the internalization of the peptides, the labeled peptide distribution was evaluated by FACS. Live/dead cell population was analyzed by monitoring the influx of propidium iodide (PI) at 10 min and 4 h of incubation.
(§8) Bacterial cell overnight culture was inoculated in a fresh LB to reach logarithmic phase OD600 of 0.2. A 500 µL aliquot of the bacterial suspension was incubated with 0.5 µM of each peptide for 10 min. After incubation and subsequently washes with 1× PBS at least thrice to remove presence of FITC-labeled peptide in the medium, 20,000 cells were subjected to FACS analysis using a FACSCalibur cytometer (BD Biosciences, Franklin Lakes, NJ, USA). The peptide bacterial uptake was assayed using 0.10 µM and 0.5 µM of each peptide at the first 10 min and after 4 h of peptide incubation.
(§9) (1 picture or pasted object on this page, not shown here)

S. aureus cells = assay: FACS internalization of FITC-labeled peptides; format: cell-based, Staphylococcus aureus; details: FITC-labeled peptide, sublethal concentration (0.5 µM), 10 min
Experimental: as §7, §8, §9

E. coli cells [15] = assay: Bacterial cell leakage, SYTOX Green; format: cell-based, Escherichia coli; details: SYTOX Green 5 µM, 40 min, Triton X-100 = maximum, mean ± SEM
pET28 plasmid DNA = assay: DNA binding gel retardation assay; details: 200 ng pET28 plasmid DNA; peptide-to-DNA weight ratios 2.5:1, 5:1, 10:1; 20 min room temperature; 1.0% agarose gel
primary human monocytes = assay: Cytotoxicity by resazurin reduction; format: cell-based; details: human monocytes 4 × 10^5 cells/well, peptide up to 100 µM, 72 h at 37 °C
Experimental: as §2

E. coli cells [16] = assay: Bacterial membrane depolarization, DiSC3(5) dye; format: cell-based, Escherichia coli; details: DiSC3(5) 0.4 µM, peptide 0.1 to 5 µM, 20 °C, mean ± SEM
[17] = Liposome agglutination by dynamic light scattering; details: DOPC/DOPG LUVs 30 µM; DLS; 25 °C; 10 mM Tris/HCl, 100 mM NaCl pH 7.4; peptide 0.1–2 µM
P. aeruginosa (PA01) = assay: Bacterial viability by ATP quantification (BacTiter-Glo); format: cell-based, Pseudomonas aeruginosa; details: P. aeruginosa PA01 reference strain; ATP luminescence; 4 h at 37 °C; mean ± SEM, three replicates of two experiments
Experimental: as §2, §5, §6

P. aeruginosa (PA14) = assay: as above; format: cell-based, Pseudomonas aeruginosa; details: P. aeruginosa PA14 reference strain; ATP luminescence; 4 h at 37 °C; mean ± SEM, three replicates of two experiments
Experimental: as §2, §5, §6

## CC1(C)S[C@@H]2[C@H](NC(=O)[C@H](N)c3ccccc3)C(=O)N2[C@H]1C(=O)O [ampicillin, Ampicillin, reference compound]
[1]
  DnaK gene expression: upregulated
  sbmA gene expression: mild reduction

## GLVGTLLGHIGKAILGG-OH [Peptide F2.3S, Frenatin 2.3S]
E. coli (BL21) [2]
  ED50: 0.23 ± 0.01 µM
E. coli cells [3]
  Agglutination (MAC), Bacteria: >5 µM
S. aureus (ATCC 502A) [4]
  ED50: 1.1 ± 0.07 µM
[5]
  16S gene expression: did not induce significant changes
  MprF gene expression: did not induce significant changes
  parE gene expression: did not induce significant changes
S. aureus (ATCC 502A) [6]
  MBC100: 1.87 µM
[1]
  DnaK gene expression: upregulation
  ompC gene expression: upregulated
  sbmA gene expression: downregulation
[7]
  ED50: >100 µM
[8]
  ED50: >100 µM
[9]
  ED50: >100 µM
E. coli (BL21) [10]
  MBC100: 0.62 µM
[11]
  Leakage (ED50), Liposomes: 0.1 µM
[12]
  ED50: 11.99 ± 0.001 µM
[13]
  ED50: 55.82 ± 0.005 µM
E. coli cells [14]
  Internalization into bacterial cells (FACS): internalization within bacterial cells
S. aureus cells
  Internalization into bacterial cells (FACS): internalization within bacterial cells
E. coli cells [15]
  Leakage (ED50), Bacteria: 0.1 ± 0.07 µM
pET28 plasmid DNA
  DNA-binding activity (gel retardation): high DNA-binding activity
Primary human monocytes
  CC50: >100 µM
E. coli cells [16]
  Depolarization (ED50), Bacteria: 0.1 ± 0.05 µM
[17]
  Agglutination (MAC), Liposomes: >2 µM
P. aeruginosa (PA01)
  ED50: 3.4 ± 0.062 µM
P. aeruginosa (PA14)
  ED50: 3.1 ± 0.003 µM
